ChEMBL document CHEMBL1133893, “Design and synthesis of a highly selective EP4-receptor agonist. Part 1: 3,7-dithiaPG derivatives with high selectivity” (Bioorg Med Chem Lett, 2001)

Tests used:
[1] = biological target: T1, Prostaglandin E2 receptor EP1 subtype (Mus musculus, UniProt P35375); assay: Evaluated for its competitive binding affinity towards mouse Prostanoid EP1 receptor in CHO cells expressing prostanoid receptor; type: cell-based
T1 sequence (P35375 whole entry): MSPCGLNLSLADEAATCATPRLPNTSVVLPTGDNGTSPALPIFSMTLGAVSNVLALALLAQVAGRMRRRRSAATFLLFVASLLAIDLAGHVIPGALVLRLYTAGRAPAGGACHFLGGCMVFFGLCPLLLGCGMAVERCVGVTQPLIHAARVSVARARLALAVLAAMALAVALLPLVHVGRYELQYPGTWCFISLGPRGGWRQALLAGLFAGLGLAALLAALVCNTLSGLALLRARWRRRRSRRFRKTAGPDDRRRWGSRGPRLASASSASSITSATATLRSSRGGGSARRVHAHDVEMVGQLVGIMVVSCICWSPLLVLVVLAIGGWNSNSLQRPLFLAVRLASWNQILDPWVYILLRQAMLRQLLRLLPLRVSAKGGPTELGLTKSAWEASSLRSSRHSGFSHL

[2] = biological target: T2, Prostaglandin E2 receptor EP4 subtype (Mus musculus, UniProt P32240); assay: Effective concentration which increases intracellular c-AMP production in mouse Prostanoid EP4 receptor; type: functional, cell-based
[3] = biological target: Prostaglandin E2 receptor EP2 subtype (Mus musculus, UniProt Q62053); assay: Evaluated for its competitive binding affinity towards mouse Prostanoid EP2 receptor in CHO cells expressing prostanoid receptor; type: cell-based
[4] = biological target: T2, Prostaglandin E2 receptor EP4 subtype; assay: Evaluated for its competitive binding affinity towards mouse Prostanoid EP4 receptor in CHO cells expressing prostanoid receptor; type: cell-based
[5] = Selectivity ratio (Prostanoid EP3 receptor/Prostanoid EP4 receptor) was determined
[6] = biological target: T3, Prostaglandin E2 receptor EP3 subtype (Mus musculus, UniProt P30557); assay: Evaluated for its competitive binding affinity towards mouse Prostanoid EP3 receptor in CHO cells expressing prostanoid receptor; type: cell-based
T3 sequence (P30557 whole entry): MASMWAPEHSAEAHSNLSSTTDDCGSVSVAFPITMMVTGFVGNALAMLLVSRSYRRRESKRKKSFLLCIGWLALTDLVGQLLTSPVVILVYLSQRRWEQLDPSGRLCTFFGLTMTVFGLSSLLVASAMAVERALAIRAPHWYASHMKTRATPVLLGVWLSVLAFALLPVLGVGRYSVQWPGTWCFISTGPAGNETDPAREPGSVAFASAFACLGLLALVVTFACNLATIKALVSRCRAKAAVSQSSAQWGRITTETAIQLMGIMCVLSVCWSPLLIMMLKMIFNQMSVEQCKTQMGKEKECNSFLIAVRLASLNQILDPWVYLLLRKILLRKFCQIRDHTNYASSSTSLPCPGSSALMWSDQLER

[7] = biological target: Prostacyclin receptor (Homo sapiens, UniProt P43119); assay: Evaluated for its competitive binding affinity towards human Prostanoid IP receptor in CHO cells; type: cell-based
Sequence of Prostacyclin receptor (P43119 whole entry): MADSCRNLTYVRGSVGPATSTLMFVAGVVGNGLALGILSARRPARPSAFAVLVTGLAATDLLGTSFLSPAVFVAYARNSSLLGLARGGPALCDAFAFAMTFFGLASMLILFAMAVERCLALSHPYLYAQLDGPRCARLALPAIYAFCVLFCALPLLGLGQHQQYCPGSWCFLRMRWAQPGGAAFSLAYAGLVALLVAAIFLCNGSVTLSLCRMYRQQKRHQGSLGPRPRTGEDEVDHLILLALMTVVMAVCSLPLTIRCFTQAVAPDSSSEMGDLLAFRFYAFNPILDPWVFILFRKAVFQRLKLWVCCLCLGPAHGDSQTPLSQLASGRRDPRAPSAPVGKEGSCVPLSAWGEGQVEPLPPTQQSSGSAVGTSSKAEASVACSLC

Sequence of Prostaglandin E2 receptor EP2 subtype (Q62053 whole entry): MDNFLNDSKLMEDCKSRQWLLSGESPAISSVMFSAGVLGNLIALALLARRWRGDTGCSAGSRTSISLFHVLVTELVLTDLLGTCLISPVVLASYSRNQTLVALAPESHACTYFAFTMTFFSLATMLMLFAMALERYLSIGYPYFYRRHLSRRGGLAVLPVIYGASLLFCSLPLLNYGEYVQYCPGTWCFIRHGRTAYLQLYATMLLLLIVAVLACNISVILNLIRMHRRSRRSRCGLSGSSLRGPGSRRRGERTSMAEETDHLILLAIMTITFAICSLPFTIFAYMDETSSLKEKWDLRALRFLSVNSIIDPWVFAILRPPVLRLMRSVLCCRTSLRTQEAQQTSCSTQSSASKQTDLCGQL
T2 sequence (P32240 whole entry): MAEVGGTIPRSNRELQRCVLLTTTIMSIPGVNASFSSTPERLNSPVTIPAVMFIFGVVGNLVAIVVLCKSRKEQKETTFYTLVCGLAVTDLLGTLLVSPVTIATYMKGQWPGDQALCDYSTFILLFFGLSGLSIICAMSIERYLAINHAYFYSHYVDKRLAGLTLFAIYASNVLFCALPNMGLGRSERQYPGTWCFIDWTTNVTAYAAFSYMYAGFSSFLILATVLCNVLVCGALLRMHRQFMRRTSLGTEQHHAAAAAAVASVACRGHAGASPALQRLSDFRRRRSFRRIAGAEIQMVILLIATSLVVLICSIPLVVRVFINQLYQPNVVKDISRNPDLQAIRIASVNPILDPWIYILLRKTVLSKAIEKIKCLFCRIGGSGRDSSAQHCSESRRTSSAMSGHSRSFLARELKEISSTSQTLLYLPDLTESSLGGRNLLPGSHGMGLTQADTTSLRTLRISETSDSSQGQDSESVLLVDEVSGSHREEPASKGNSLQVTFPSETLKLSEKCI

Ki [1] [µM]	EC50 [2] [µM]	Ki [3] [µM]	Ki [4] [µM]	Selectivity ratio [5]	Ki [6] [µM]	Ki [7] [µM]	Structure (SMILES)
> 10	0.037	> 10	0.0099	50	0.51	> 10	COc1cccc(C[C@H](O)/C=C/[C@H]2[C@H](O)CC(=O)[C@@H]2SCCCSCC(=O)O)c1
0.011	–	0.014	0.0004	–	0.0061	0.0033	CCCC[C@H](C)C[C@H](O)/C=C/[C@H]1[C@H](O)CC(=O)[C@@H]1SCCCCCC(=O)O
> 10	0.0031	2.1	0.0031	120	1.2	> 10	COCc1cccc(C[C@H](O)/C=C/[C@H]2[C@H](O)CC(=O)[C@@H]2SCCCSCC(=O)O)c1
0.022	0.0025	0.041	–	–	–	–	CCCCC[C@H](O)/C=C/[C@H]1[C@H](O)CC(=O)[C@@H]1CCCCCCC(=O)O [ALPROSTADIL]
> 10	0.0025	> 10	0.0094	450	4.5	> 10	CCOCc1cccc(C[C@H](O)/C=C/[C@H]2[C@H](O)CC(=O)[C@@H]2SCCCSCC(=O)O)c1
> 10	0.012	3.1	0.0085	–	3	> 10	COCCc1cccc(C[C@H](O)/C=C/[C@H]2[C@H](O)CC(=O)[C@@H]2SCCCSCC(=O)O)c1
0.61	0.17	1.2	0.0032	–	0.0044	> 10	CCCCC[C@H](O)/C=C/[C@H]1[C@H](O)CC(=O)[C@@H]1SCCSCCC(=O)O
> 10	0.044	> 10	0.1	–	> 10	> 10	COCCCc1cccc(C[C@H](O)/C=C/[C@H]2[C@H](O)CC(=O)[C@@H]2SCCCSCC(=O)O)c1
> 10	0.0028	0.76	0.0019	–	0.1	> 10	Cc1cccc(C[C@H](O)/C=C/[C@H]2[C@H](O)CC(=O)[C@@H]2SCCCSCC(=O)O)c1
0.61	0.0043	0.28	0.0007	–	0.22	> 10	CCCCC[C@H](O)/C=C/[C@H]1[C@H](O)CC(=O)[C@@H]1SCCCSCC(=O)O
> 10	0.42	2.5	0.022	–	0.14	> 10	Cc1ccccc1C[C@H](O)/C=C/[C@H]1[C@H](O)CC(=O)[C@@H]1SCCCSCC(=O)O
> 10	0.0048	5.3	0.006	70	0.43	> 10	CSCc1cccc(C[C@H](O)/C=C/[C@H]2[C@H](O)CC(=O)[C@@H]2SCCCSCC(=O)O)c1
> 10	0.27	1.2	0.0073	–	0.072	> 10	Cc1ccc(C[C@H](O)/C=C/[C@H]2[C@H](O)CC(=O)[C@@H]2SCCCSCC(=O)O)cc1
2.6	0.034	3.9	0.007	–	0.13	> 10	O=C(O)CSCCCS[C@H]1C(=O)C[C@@H](O)[C@@H]1/C=C/[C@@H](O)Cc1ccccc1
3.1	0.032	1.5	0.0071	50	0.22	> 10	COc1ccc(C[C@H](O)/C=C/[C@H]2[C@H](O)CC(=O)[C@@H]2SCCCSCC(=O)O)cc1
0.05	7.8	1	0.028	–	0.0035	> 10	CCCCC[C@H](O)/C=C/[C@H]1[C@H](O)CC(=O)[C@@H]1CSCCSCC(=O)O
> 10	0.01	7.7	0.0052	–	3	> 10	CCCOCc1cccc(C[C@H](O)/C=C/[C@H]2[C@H](O)CC(=O)[C@@H]2SCCCSCC(=O)O)c1
1.2	0.0077	0.15	0.0023	–	0.011	0.51	CCCCC[C@H](O)/C=C/[C@H]1[C@H](O)CC(=O)[C@@H]1SCCCOCC(=O)O
> 10	0.58	2.6	0.032	50	1.1	> 10	COc1ccccc1C[C@H](O)/C=C/[C@H]1[C@H](O)CC(=O)[C@@H]1SCCCSCC(=O)O
0.12	0.0037	0.1	0.0007	–	0.0045	0.87	CCCCC[C@H](O)/C=C/[C@H]1[C@H](O)CC(=O)[C@@H]1SCCCCCC(=O)O
